Experiments:
Format in all cases: physicochemical
[1] = Solubility limit in water from plot of ln(conc.) vs surface tension at 0.1 b/s
Text: A plot of In(conc.) vs surface tension observed at 0.1 b/s was used to determine that the solubility limit of this material is 0.1 wt %.

[2] = Dynamic surface tension of aqueous solutions, maximum bubble pressure method
Text: where R is a C5 to C11 alkyl group, provided that the organic compound is not an azole derivative fungicide. […] The maximum-bubble-pressure method of measuring surface tension is described in Langmuir 1986, 2, 428-432, which is incorporated by reference.
In the following Examples dynamic surface tension data were obtained for aqueous solutions of various compounds using the maximum bubble pressure method at bubble rates from 0.1 bubbles/second (b/s) to 20 b/s. […] In practical terms, high bubble rates correspond to high printing speeds in lithographic printing, high spray or roller velocities in coating applications, and rapid application rates for agricultural products.

[3] = Foam test based upon ASTM D 1173-53; details: aqueous solutions
Procedure: The foaming properties of 0.1 wt % solutions of the N-octylpyrrolidone and the alkylformamide surfactants of this invention were examined using a procedure based upon ASTM D 1173-53. In this test, a 0.1 wt % solution of the surfactant is added from an elevated foam pipette to a foam receiver containing the same solution. The foam height is measured at the completion of the addition (“Initial Foam Height”) and the time required for the foam to dissipate at the air-liquid interface (“Time to 0 Foam”) is recorded. This test provides a comparison between the foaming characteristics of various surfactant solutions. In general, in coatings, inks, and agricultural formulations, foam is undesirable because it complicates handling and can lead to coating and print defects, and to inefficient application of agricultural materials.

Compound: CCCCCCNC=O [n-HF, n-hexylformamide]
- solubility limit [1]: 1.1 wt %
- Dynamic Surface Tension ([2]; 0.1 wt % in water, 0.1 b/s (Table 4)): 56.0 dynes/cm
- Dynamic Surface Tension ([2]; 0.1 wt % in water, 1 b/s (Table 4)): 57.6 dynes/cm
- Dynamic Surface Tension ([2]; 0.1 wt % in water, 6 b/s (Table 4)): 58.8 dynes/cm
- Dynamic Surface Tension ([2]; 0.1 wt % in water, 15 b/s (Table 4)): 60.3 dynes/cm
- Dynamic Surface Tension ([2]; 0.1 wt % in water, 20 b/s (Table 4)): 60.6 dynes/cm
- Dynamic Surface Tension ([2]; 0.5 wt % in water, 0.1 b/s): 37.2 dynes/cm
- Dynamic Surface Tension ([2]; 0.5 wt % in water, 1 b/s): 38.0 dynes/cm
- Dynamic Surface Tension ([2]; 0.5 wt % in water, 6 b/s): 38.8 dynes/cm
- Dynamic Surface Tension ([2]; 0.5 wt % in water, 15 b/s): 40.1 dynes/cm
- Dynamic Surface Tension ([2]; 0.5 wt % in water, 20 b/s): 40.3 dynes/cm
- Dynamic Surface Tension ([2]; 1.0 wt % in water, 0.1 b/s): 28.4 dynes/cm
- Dynamic Surface Tension ([2]; 1.0 wt % in water, 1 b/s): 29.0 dynes/cm
- Dynamic Surface Tension ([2]; 1.0 wt % in water, 6 b/s): 29.6 dynes/cm
- Dynamic Surface Tension ([2]; 1.0 wt % in water, 15 b/s): 30.1 dynes/cm
- Dynamic Surface Tension ([2]; 1.0 wt % in water, 20 b/s): 31.1 dynes/cm
- surface tension ([2]; 1.0 wt % solution, 20 b/s): 31.1 dyne/cm
- Dynamic Surface Tension ([2]; 2.0 wt % in water, 0.1 b/s): 27.4 dynes/cm
- Dynamic Surface Tension ([2]; 2.0 wt % in water, 1 b/s): 28.4 dynes/cm
- Dynamic Surface Tension ([2]; 2.0 wt % in water, 6 b/s): 29.3 dynes/cm
- Dynamic Surface Tension ([2]; 2.0 wt % in water, 15 b/s): 30.7 dynes/cm
- Dynamic Surface Tension ([2]; 2.0 wt % in water, 20 b/s): 30.3 dynes/cm
- foaming of aqueous solutions (in words) [3]: almost no foam
